{
  "source": "patent US20170072024A1",
  "about": "“ANTIMICROBIAL COMPOSITION COMPRISING A CARBOHYDRATE, GLUCOSE OXIDASE AND ZINC OXIDE” (MELIPHARM, priority 2014, published 2017)",
  "key": {"[1]": {"system": "S. aureus", "test": "Bacterial proliferation test, 96 well microplate (OD 450 nm, 24 h)", "assay_type": "cell-based", "settings": "positive control = 100% proliferation", "procedure": "(§1) The microbial strains used for the tests are the following bacteria: • P. aeruginosa • S. aureus The tests were conducted on microplates to evaluate the MIC (Minimum Inhibitory Concentration). […] Each well is inoculated with 50 μL of bacterial suspension to be tested in a Muller-Hinton (MH) broth+150 μL of diluted test product solution. […] Each specimen is tested in triplicate. The optical densities (OD) are read a first time at time 0 (T0) at 450 nm. The plates are then incubated for 24 h at 37° C. with agitation. At the end of incubation, the OD is measured again at 450 nm (T24). The proliferation percentage is calculated as follows: Proliferation=(DOT24−DOT0)/(DOT24Control+−DOT0Control+)"}, "[2]": {"system": "P. aeruginosa", "test": "Bacterial proliferation test, 96 well microplate (OD 450 nm, 24 h)", "assay_type": "cell-based", "settings": "positive control = 100% proliferation", "procedure": "as §1"}},
  "data": [
    {"compound": "O=C[C@H](O)[C@@H](O)[C@H](O)[C@H](O)CO", "note": "[Formula 9, glucose]", "values": [
      {"measurement": "proliferation percentage of S. aureus", "setting": "[1]; formula at 1.5% (v/v)", "value": 96, "unit": "%"},
      {"measurement": "proliferation percentage of S. aureus", "setting": "[1]; formula at 3% (v/v)", "value": 86, "unit": "%"},
      {"measurement": "proliferation percentage of S. aureus", "setting": "[1]; formula at 6% (v/v)", "value": 83, "unit": "%"},
      {"measurement": "proliferation percentage of S. aureus", "setting": "[1]; formula at 9% (v/v)", "value": 72, "unit": "%"},
      {"measurement": "proliferation percentage of P aeruginosa", "setting": "[2]; formula at 1.5% (v/v)", "value": 100, "unit": "%"},
      {"measurement": "proliferation percentage of P aeruginosa", "setting": "[2]; formula at 3% (v/v)", "value": 206, "unit": "%"},
      {"measurement": "proliferation percentage of P aeruginosa", "setting": "[2]; formula at 6% (v/v)", "value": 206, "unit": "%"},
      {"measurement": "proliferation percentage of P aeruginosa", "setting": "[2]; formula at 9% (v/v)", "value": 113, "unit": "%"}
    ]},
    {"compound": "glucose oxidase [Formula 8]", "values": [
      {"measurement": "proliferation percentage of S. aureus", "setting": "[1]; formula at 1.5% (v/v)", "value": 81, "unit": "%"},
      {"measurement": "proliferation percentage of S. aureus", "setting": "[1]; formula at 3% (v/v)", "value": 72, "unit": "%"},
      {"measurement": "proliferation percentage of S. aureus", "setting": "[1]; formula at 6% (v/v)", "value": 54, "unit": "%"},
      {"measurement": "proliferation percentage of S. aureus", "setting": "[1]; formula at 9% (v/v)", "value": 46, "unit": "%"},
      {"measurement": "proliferation percentage of P aeruginosa", "setting": "[2]; formula at 1.5% (v/v)", "value": 96, "unit": "%"},
      {"measurement": "proliferation percentage of P aeruginosa", "setting": "[2]; formula at 3% (v/v)", "value": 96, "unit": "%"},
      {"measurement": "proliferation percentage of P aeruginosa", "setting": "[2]; formula at 6% (v/v)", "value": 91, "unit": "%"},
      {"measurement": "proliferation percentage of P aeruginosa", "setting": "[2]; formula at 9% (v/v)", "value": 86, "unit": "%"}
    ]}
  ]
}
